Test results published in patent US20250152593A1, “p38 MAPK INHIBITORS AND USES THEREOF” (CITY OF HOPE, priority 2023, published 2025).
pIC50: −log10 of the molar value. One block for each compound: values may come before it.

Key:
p38 MAPK alpha = p38 MAPK alpha (Homo sapiens, UniProt Q16539); assay: in vitro kinase assay, p38 MAPK alpha catalytic activity; format: biochemical
Experimental: (§1) FIGS. 6A-6C. In vitro kinase assays for p38a (FIG. 6A), p38β(FIG. 6B), and […] (FIG. 6C) at 100 nM.
(§2) Quinazoline derivatives were initially tested with various cancer types of cell lines using a cell-based assay.

[1] = system: RPMI8226 multiple myeloma cells; assay: combination of SAHA and CEM451 with RPMI8226 multiple myeloma cells; format: cell-based; conditions: for Effect of CEM451 / Effect of SAHA: RPMI8226
p38 MAPK beta = p38 MAPK beta (Homo sapiens, UniProt Q15759); assay: in vitro kinase assay, p38 MAPK beta catalytic activity; format: biochemical
p38 MAPK beta, sequence (Q15759 whole entry): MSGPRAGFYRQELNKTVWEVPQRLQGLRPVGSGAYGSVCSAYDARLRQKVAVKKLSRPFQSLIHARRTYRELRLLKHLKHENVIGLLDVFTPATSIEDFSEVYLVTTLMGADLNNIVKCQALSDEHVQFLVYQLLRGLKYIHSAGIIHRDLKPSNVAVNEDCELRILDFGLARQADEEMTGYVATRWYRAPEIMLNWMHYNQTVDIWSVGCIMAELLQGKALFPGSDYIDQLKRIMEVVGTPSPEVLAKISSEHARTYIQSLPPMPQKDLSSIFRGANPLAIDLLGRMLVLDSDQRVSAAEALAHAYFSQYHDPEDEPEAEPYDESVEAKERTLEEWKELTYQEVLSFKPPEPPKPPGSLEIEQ
Experimental: as §1, §2

K562 CML cells = assay: cell-based assay, K562 CML cells; conditions: Homo sapiens, read-out: IC50 against K562 CML cells
Excerpt: as §2

hematopoietic cell lines = assay: antitumor activity against hematopoietic cell lines; format: cell-based
Excerpt: as §2

Hut78 cells = assay: combination study of HDAC inhibitors and CEM451 with Hut78 cells; format: cell-based; conditions: for Effect of CEM451 / Effect of Romidepsin / Effect of SAHA: Hut78

p38 MAPK alpha, sequence (Q16539 whole entry): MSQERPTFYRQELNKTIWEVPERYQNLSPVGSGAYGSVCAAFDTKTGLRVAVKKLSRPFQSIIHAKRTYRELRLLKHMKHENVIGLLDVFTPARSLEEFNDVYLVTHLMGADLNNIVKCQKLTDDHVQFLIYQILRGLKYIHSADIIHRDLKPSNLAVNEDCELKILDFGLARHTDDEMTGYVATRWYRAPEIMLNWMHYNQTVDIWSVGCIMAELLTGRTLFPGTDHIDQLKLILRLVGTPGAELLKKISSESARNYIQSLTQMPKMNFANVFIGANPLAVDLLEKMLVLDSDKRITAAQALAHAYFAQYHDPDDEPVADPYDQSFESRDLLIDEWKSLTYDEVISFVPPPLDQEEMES

pIC50 (p38 MAPK alpha): 8.21
pIC50 (p38 MAPK beta): 7.89
pIC50 (K562 CML cells): 6.27
Structure (SMILES): Cc1ccc(NC(=O)c2cccc(C(F)(F)F)c2)cc1Nc1ncnc2nc(NC3CC3)ncc12 [CEM451, N-(3-((7-(cyclopropylamino)pyrimido[4,5-d]pyrimidin-4-yl)amino)-4-methylphenyl)-3-(trifluoromethyl)benzamide]
Effect of CEM451 ([1]; CEM451 5 μM): 0.47
Effect of CEM451 ([1]; CEM451 10 μM): 0.71
Effect of CEM451 ([1]; CEM451 15 μM): 0.81
effect in combination with SAHA ([1]; RPMI8226 MM cells): synergistic effects
antitumor activities against hematopoietic cell lines (hematopoietic cell lines): broadly showed antitumor activities
Effect of CEM451 (Hut78 cells; Romidepsin combination study, CEM451 5 μM): 0.57
Effect of CEM451 (Hut78 cells; Romidepsin combination study, CEM451 10 μM): 0.72
Effect of CEM451 (Hut78 cells; Romidepsin combination study, CEM451 15 μM): 0.83
Effect of CEM451 (Hut78 cells; high doses study with SAHA, CEM451 5 μM): 0.48
Effect of CEM451 (Hut78 cells; high doses study with SAHA, CEM451 10 μM): 0.65
Effect of CEM451 (Hut78 cells; high doses study with SAHA, CEM451 15 μM): 0.81
Effect of CEM451 (Hut78 cells; low doses study, CEM451 0.5 μM): 0.24
Effect of CEM451 (Hut78 cells; low doses study, CEM451 1 μM): 0.26
Effect of CEM451 (Hut78 cells; low doses study, CEM451 3 μM): 0.45
effect in combination with SAHA (Hut78 cells; Hut78 CTCL cells): synergistic effects

Structure (SMILES): C/C=C1\NC(=O)[C@H]2CSSCC/C=C/[C@H](CC(=O)N[C@H](C(C)C)C(=O)N2)OC(=O)[C@H](C(C)C)NC1=O [Romidepsin, reference compound]
Effect of Romidepsin (Hut78 cells; Romidepsin 0.001 μM): 0.1
Effect of Romidepsin (Hut78 cells; Romidepsin 0.0015 μM): 0.58
Effect of Romidepsin (Hut78 cells; Romidepsin 0.002 μM): 0.92

Structure (SMILES): O=C(CCCCCCC(=O)Nc1ccccc1)NO [SAHA, reference compound]
Effect of SAHA ([1]; SAHA 0.6 μM): 0.63
Effect of SAHA ([1]; SAHA 0.9 μM): 0.8
Effect of SAHA ([1]; SAHA 1.2 μM): 0.91
Effect of SAHA (Hut78 cells; high doses study, SAHA 0.6 μM): 0.16
Effect of SAHA (Hut78 cells; high doses study, SAHA 0.9 μM): 0.27
Effect of SAHA (Hut78 cells; high doses study, SAHA 1.2 μM): 0.74
Effect of SAHA (Hut78 cells; low doses study, SAHA 0.6 μM): 0.3
Effect of SAHA (Hut78 cells; low doses study, SAHA 0.9 μM): 0.59
Effect of SAHA (Hut78 cells; low doses study, SAHA 1.2 μM): 0.84
